The structures appear in SMILES notation.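 1) Cells in 96-well plates. 2) Compound, 48 h, 5 concentrations. 3) Linear interpolation between surrounding doses. 4) Unreached endpoint = highest concentration. TGI: total growth inhibition.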 Where only a bound is given, the exact number is not on record here.

Test systems include DMS 114 small cell lung; DMS 273 small cell lung; HOP-18 NSCLC; KM20L2 colon; LXFL 529 NSCLC; M19-MEL melanoma; RXF-631 renal; SNB-78 CNS; XF 498 CNS.
Common to all, as to assay: NCI-60 cell line screen, 48 h

In the case of `O=C(c1ccccc1)c1ccc(OCCOc2ccc(Nc3ccccc3)cc2)cc1`, the TGI in the experiment with DMS 114 small cell lung, in the experiment on DMS 273 small cell lung, in the experiment on HOP-18 NSCLC, in the experiment with KM20L2 colon, with LXFL 529 NSCLC and with M19-MEL melanoma was > 100 µM each time. In addition, the TGI in the experiment with RXF-631 renal was 82.8 µM; in the experiment on SNB-78 CNS it was > 100 µM; in the experiment on XF 498 CNS it was 48.4 µM.

Consider `CC1(C)OC(C[C@]2(C#N)C[C@H](CCl)OC(C)(C)O2)C[C@@H](C[C@]2(C#N)C[C@H](CCl)OC(C)(C)O2)O1` (some centres not stated), for which the TGI in the experiment with DMS 273 small cell lung, in the experiment with HOP-18 NSCLC, in the experiment on KM20L2 colon, in the experiment with LXFL 529 NSCLC, with M19-MEL melanoma and with SNB-78 CNS was > 100 µM each time. For the same molecule, the TGI in the experiment on XF 498 CNS was > 100 µM.

`CCSC1(SCC)CC(Cc2ccc(OC)cc2)N(C=NC(C)(C)C)C1` (configuration not stated): the TGI with DMS 114 small cell lung is 43.4 µM; in the experiment on DMS 273 small cell lung it was > 100 µM; in the experiment with HOP-18 NSCLC, > 100 µM; in the experiment on KM20L2 colon, 56.9 µM; in the experiment with LXFL 529 NSCLC, 93.6 µM; with M19-MEL melanoma, 97.7 µM. The TGI with SNB-78 CNS is > 100 µM; in the experiment on XF 498 CNS it was 38.9 µM.

In the case of `COc1ccc2c3c(n(Cc4ccccc4)c(=O)c2c1)-c1cc(OC)c(OC)cc1C3C` (configuration not stated), the TGI with DMS 114 small cell lung was > 89.2 µM; with DMS 273 small cell lung, 38.6 µM; in the experiment on HOP-18 NSCLC it was > 100 µM; in the experiment with KM20L2 colon it was > 100 µM; in the experiment with LXFL 529 NSCLC it was > 53 µM; in the experiment on M19-MEL melanoma it was > 73.1 µM. For the same molecule, the TGI in the experiment with RXF-631 renal is > 100 µM; with SNB-78 CNS, > 100 µM; in the experiment with XF 498 CNS it was 38 µM.

Consider `O=C(O)Cc1cccc2c1Oc1ccccc1S2`, for which the TGI in the experiment on DMS 114 small cell lung, in the experiment on DMS 273 small cell lung, in the experiment on KM20L2 colon, with LXFL 529 NSCLC, in the experiment on M19-MEL melanoma and in the experiment with SNB-78 CNS was > 100 µM each time.

As to `O=C1CCCC/C1=C1\C(=O)Nc2cc(F)ccc21`, the TGI in the experiment on DMS 114 small cell lung, with DMS 273 small cell lung, with HOP-18 NSCLC, in the experiment on KM20L2 colon, with LXFL 529 NSCLC and with M19-MEL melanoma was > 100 µM in each case. The TGI with SNB-78 CNS and in the experiment on XF 498 CNS was > 100 µM in each case.

Turning to `COc1cc(-c2cc(=O)c3c(O)c(OC)c(OC)c(OC)c3o2)ccc1O`, the TGI in the experiment with DMS 114 small cell lung is 77.8 µM; in the experiment on DMS 273 small cell lung, 30.5 µM; in the experiment on HOP-18 NSCLC it was > 100 µM; in the experiment on KM20L2 colon it was > 100 µM; in the experiment on LXFL 529 NSCLC it was > 100 µM; in the experiment with M19-MEL melanoma, > 100 µM. The molecule further returned a TGI with SNB-78 CNS of 70.1 µM.

Regarding `CC(=O)C1=C(C)Cn2c(=O)c3ccccc3c(=O)n2C1`, the TGI in the experiment on DMS 114 small cell lung, with DMS 273 small cell lung, with KM20L2 colon, in the experiment on LXFL 529 NSCLC, in the experiment on M19-MEL melanoma and with RXF-631 renal was > 100 µM throughout.

For `CCCc1c[nH]c(-c2ccc(-c3cc(CCC)c(C=O)[nH]3)s2)c1`, the TGI in the experiment on DMS 114 small cell lung was determined as 27.8 µM; in the experiment on DMS 273 small cell lung it was 30.3 µM; in the experiment with HOP-18 NSCLC, 43 µM; with LXFL 529 NSCLC, 32.8 µM; with M19-MEL melanoma, 21.6 µM; in the experiment on SNB-78 CNS it was 37.2 µM. Further, the TGI in the experiment on XF 498 CNS came to 32.7 µM.

In the case of `CCCCCCCCOC(CO)CO`, the TGI with DMS 114 small cell lung, with DMS 273 small cell lung, in the experiment with HOP-18 NSCLC, with KM20L2 colon, in the experiment on LXFL 529 NSCLC and with M19-MEL melanoma was > 100 µM throughout.

In the case of `CC(O)C(N=Cc1nc(-c2ccccc2)oc1O)C(=O)O` (configuration not stated), the TGI in the experiment with DMS 114 small cell lung, with DMS 273 small cell lung, in the experiment with HOP-18 NSCLC, with KM20L2 colon, with LXFL 529 NSCLC and in the experiment with M19-MEL melanoma was > 100 µM throughout. For the same molecule, the TGI in the experiment with RXF-631 renal, in the experiment with SNB-78 CNS and with XF 498 CNS was > 100 µM throughout.

`N#C/C(=C\c1ccc(O)c(O)c1)C(=O)NC1CCC(CC2CCC(NC(=O)/C(C#N)=C/c3ccc(O)c(O)c3)CC2)CC1` (configuration not stated): the TGI in the experiment on DMS 273 small cell lung is 0.832 µM; in the experiment on HOP-18 NSCLC it was > 100 µM; in the experiment with KM20L2 colon it was 3.81 µM; in the experiment with LXFL 529 NSCLC, 28.1 µM; in the experiment on M19-MEL melanoma it was 5.23 µM; in the experiment with SNB-78 CNS, 5.37 µM. In the experiment with XF 498 CNS, the TGI came out at 16.5 µM.

Turning to `Cc1c(-c2nnc(-c3ccc(Cl)cc3)o2)c(=O)n(-c2ccccc2)n1C`, the TGI in the experiment with DMS 114 small cell lung, in the experiment with DMS 273 small cell lung, with HOP-18 NSCLC, in the experiment with KM20L2 colon, in the experiment on LXFL 529 NSCLC and with M19-MEL melanoma was > 100 µM throughout. The TGI in the experiment on SNB-78 CNS and with XF 498 CNS was > 100 µM each time.

(Values after PubChem BioAssay (NCI).)
